# Reference: patent US7553974B2, “Crystal of (2R,4R)-monatin potassium salt and sweetener composition containing same” (Ajinomoto Co., Inc., priority 2004, dated 2009)
# Structures can show the parent of a compound that is named as a salt. Where two headings read alike, the source gives them in different places.
# Legend:
# [1] = type: physicochemical; conditions: for transmittance (%): 1 g/dl in H2O, room temperature, 490 nm
# Text: The crystals of the (2R,4R)-monatin dipotassium salt obtained in Example 9, (2R,4R)-monatin, and crystals of the (2R,4R)-monatin monopotassium salt produced according to the production method described in the aforementioned WO03/045914 were subjected to a coloring test. Measurement Method of Coloring Test: • Measurement device: CARY 50 UV-VIS spectrophotometer manufactured by Varian Technologies Japan Limited; • Concentration: 1 g/dl; • Solvent: H2O; • Temperature: room temperature; • Measurement wavelength: 490 nm; and • Measurement interval: 30 minutes.
# [2] = type: physicochemical; conditions: for area %: HPLC area of (2R,4R)-monatin relative to total peak area, 210 nm, 60° C. preservation sample; for area % / weight change (%): 1 week; for weight change (%): HPLC quantitation value of 60° C. sample, room temperature sample = 100%
# Protocol: The crystals of the (2R,4R)-monatin dipotassium salt obtained in Example 1 and Example 9, and crystals of the (2R,4R)-monatin monopotassium salt produced according to the production method described in the aforementioned WO03/045914 were subjected to a preservation stability test. Each sample (50 mg) was placed in a 4 ml vial (with screw cap) and stored at 60° C. and room temperature for 1 week.
# A chromatogram for each sample was measured by HPLC, and the HPLC quantitation value of the 60° C. preservation sample, when that of the room temperature preservation sample was 100%, was shown as a weight change. In addition, an HPLC chromatogram of each sample was measured and the ratio of the area value of (2R,4R)-monatin relative to the total area value of the entire peaks detected (detection wavelength: 210 nm) in the 60° C. preservation sample was expressed as the area %.
# [3] = type: physicochemical
# Protocol: The crystals of the (2R,4R)-monatin dipotassium salt obtained in Example 9 and crystals of the (2R,4R)-monatin monopotassium salt were tested for solubility using the following conditions” • Temperature: 20° C.; and
# Solubility measurement method: Two test tubes for each of 0, 20, 40, 60, 80, 100% ethanol, which contained 2 ml thereof were prepared. The crystals of the (2R,4R)-monatin dipotassium salt and crystals of the (2R,4R)-monatin monopotassium salt were added thereto in an amount prohibiting complete dissolution. The test tubes were capped and stirred overnight. Then, the mixture was passed through a filter (0.45 μm) and the filtrate was analyzed.
Compound,transmittance (%) ([1]; time 0.0 hour),transmittance (%) ([1]; time 2.0 hour),transmittance (%) ([1]; time 4.0 hour),transmittance (%) ([1]; time 6.0 hour),transmittance (%) ([1]; time 8.0 hour),transmittance (%) ([1]; time 10.0 hour),transmittance (%) ([1]; time 12.0 hour),transmittance (%) ([1]; time 14.0 hour),transmittance (%) ([1]; time 16.0 hour),transmittance (%) ([1]; time 18.0 hour),transmittance (%) ([1]; time 20.0 hour),transmittance (%) ([1]; time 22.0 hour),area % [2] [%],weight change (%) [2] [%],area % ([2]; dipotassium salt) [%],weight change (%) ([2]; dipotassium salt),color stability [1],preservation stability [2],solubility [3]
"NC(CC(O)(Cc1c[nH]c2ccccc12)C(=O)O)C(=O)O [(2R,4R)-monatin monopotassium salt]",100.02,99.75,99.28,98.42,97.98,96.86,95.61,94.35,92.97,91.49,90.05,88.75,99.8,100,–,–,–,–,–
"N[C@H](C[C@](O)(Cc1c[nH]c2ccccc12)C(=O)[O-])C(=O)[O-].[K+].[K+] [Example 1, (2R,4R)-monatin dipotassium salt]",–,–,–,–,–,–,–,–,–,–,–,–,–,–,98.4,99,–,–,–
"N[C@H](C[C@](O)(Cc1c[nH]c2ccccc12)C(=O)[O-])C(=O)[O-].[K+].[K+] [Example 9, (2R,4R)-monatin dipotassium salt]",99.63,99.60,99.51,99.43,99.44,99.44,99.41,99.42,99.39,99.35,99.39,99.38,99.6,103,–,–,superior,almost of the same level,superior
